Experimental data as given in US20020058843A1, “Novel group IV metal precursors and a method of chemical vapor deposition using the same” (priority 2000, published 2002).
Entries after “also recorded” stand apart in the source; their conditions may differ. Blank lines part the entries; values can stand above or below the substance they belong to.

What was measured:
Format in all cases: physicochemical
[1] = Vaporization temperature from endothermic peaks of TG-DSC curves; conditions: for Vaporization temp.: endothermic peak of TG-DSC curve
Protocol: (§1) The physical properties set forth in Tables 1 and 2 were measured by the following method: the melting point and vaporization temperature were measured from endothermic peaks of TG-DSC curves. However, the values indicated by the symbol * in Table 1 were measured by a melting point-measuring device, because the heat absorption by vaporization occurred along with the melting of the precursors during the measurement. The residue amounts were measured by thermal gravimetric analysis (TGA) under atmospheric pressure (N2, 20 ml/min) and recorded as residual weight of the precursors at 550° C.
(§2) TG-DSC analysis for the precursor Ti(eip)2 according to Example 11 and the precursor Ti(2meip)2 according to Example 12 was carried out under atmospheric pressure in nitrogen gas or in air, and under a reduced pressure (1.3 mbar) using Netzsch STA 449C equipment. In this analysis, the precursors were heated to 550° C. at a scanning rate of 10° C./min in nitrogen gas of a flow rate of 20 ml/min, or in air of a flow rate of 30 ml/min.
(§3) (see, FIG. 1b). […] This difference is due to that Ti(2meip)2 has a relatively weak Ti-N bond compared with a Ti-O bond and has a homoleptic structure.

[2] = Residue amount by thermal gravimetric analysis (TGA); conditions: for Residue amount: TGA, atmospheric pressure, N2 20 ml/min, residual weight at 550° C.; for Residues after being vaporized: in words
Protocol: as §1

[3] = TG-DSC analysis in air (thermal decomposition); conditions: for Thermal decomposition behaviour (exothermic peak): in words
Protocol: as §2, §3

[4] = Solubility of precursor in organic solvents; conditions: for Solubility in methanol: 0.5 g in 5 ml of methanol; for Solubility in n-butyl acetate: 0.5 g in 5 ml of n-butyl acetate
Protocol: To evaluate solubility of precursors required in introducing the precursors in liquid phase for the deposition of thin films, the precursor Ti(eip)2 prepared in Example 11 and the precursor Ti(2meip)2 prepared in Example 12 were dissolved in methanol and n-butyl acetate, respectively. […] In contrast, 0.5 g of the precursor Ti(2meip)2 containing asymmetric carbons on its ligand was soluble in both methanol and n-butyl acetate.

[5] = Vaporization rates according to temperature by thermogravimetric analysis (FIG. 4); conditions: vs Ti(mpd)(thd)2, Ti(thd)2(O-iPr)2, Ba(methd)2, Sr(methd)2
Description: Moreover, vaporization rates of the precursor Ti(2meip)2 was compared to that of the commercial precursors Ti(mpd)(thd)2, Ti(thd)2 (O-iPr)2, Ba(methd)2 and Sr(methd)2 The results are shown in FIG. 4.

[6] = Moisture proof of precursor (left to stand in air, NMR analysis); conditions: left to stand in air for three months or more
Protocol: 1.0 g of the precursor Ti(eip)2 prepared in Example 11 and 1.0 9 of the precursor Ti(2meip)2 prepared in Example 12 were placed in vials, respectively, and left to stand in air for three months or more. The analysis by NMR of the precursors was then carried out.

Substance: Barium bis[1-methoxyethoxy-2,2,6,6-tetramethyl-3,5-heptanedionate] [Ba(methd)2, reference compound]
Vaporization temp. ([1]; Table 2, prior art precursors): 391 °C
Residue amount ([2]; Table 2, prior art precursors): 8.3%

Substance: Strontium bis[1-methoxyethoxy-2,2,6,6-tetramethyl-3,5-heptanedionate] [Sr(methd)2, reference compound]
Vaporization temp. ([1]; Table 2, prior art precursors): 389 °C
Residue amount ([2]; Table 2, prior art precursors): 3.1%

Substance: Titanium [2-methyl-2,4-dioxy-pentane]-bis[(2,2,6,6-tetramethyl-3,5-heptanedionate)] [Ti(mpd)(thd)2, reference compound]
Vaporization temp. ([1]; Table 2, prior art precursors): 248 °C
Residue amount ([2]; Table 2, prior art precursors): <0.5%
Thermal decomposition behaviour (exothermic peak) [3]: weak exothermic peak over a wide range of temperature

Substance: Titanium bis(iso-propoxide)bis[(2,2,6,6-tetramethyl-3,5-heptanedionate)] [Ti(OiPr)2(thd)2, reference compound]
Vaporization temp. ([1]; Table 2, prior art precursors): 240 °C
Residue amount ([2]; Table 2, prior art precursors): 7%
Thermal decomposition behaviour (exothermic peak) [3]: weak exothermic peak over a wide range of temperature

Substance: Titanium bis[2,2-dimethyl-5-(2-methylethoxy)imino-3-heptanoate] [Ti(22dm2meih)2]
Vaporization temp. ([1]; Table 1): 287 °C
Temperature at which the precursor is vaporized ([1]; atmospheric pressure / nitrogen atmosphere, without thermal decomposition): 287 °C
Residue amount ([2]; Table 1): 0.5%
Residues after being vaporized [2]: no residues
Enhanced solubility over the precursor Ti(2meip)2 ([4]; relative to Ti(2meip)2): 20%

Substance: Titanium bis[2,2-dimethyl-5-(ethoxy)imino-3-heptanoate] [Ti(22dmeih)2]
Vaporization temp. ([1]; Table 1): 307 °C
Residue amount ([2]; Table 1): 10.6%

Substance: Titanium bis[4-(1,1-dimethylethoxy)imino-2-pentanoate] [Ti(1deip)2]
Vaporization temp. ([1]; Table 1): 290 °C
Residue amount ([2]; Table 1): 13.7%

Substance: Titanium bis[4-(2-methylethoxy)imino-2-pentanoate] [Ti(2meip)2]
Vaporization temp. ([1]; Table 1): 290 °C
Residue amount ([2]; Table 1): <0.5%
Residues after being vaporized [2]: no residues
Vapor pressure at the respective temperatures compared to the commercial precursors [5]: low in their vapor pressure
Solubility in methanol [4]: soluble
Solubility in n-butyl acetate [4]: soluble
Stability on standing in air (NMR) [6]: no peaks of non-coordinated ligands; also recorded: not structurally changed
Thermal decomposition, exothermic peak temperature ([3]; TG-DSC in air, 30 ml/min, 10° C./min): about 315 °C

Substance: Titanium bis[4-(ethoxy)imino-2-pentanoate] [Ti(eip)2]
Vaporization temp. ([1]; Table 1): 323 °C
Residue after evaporation [2]: about 8%
Residue amount ([2]; Table 1): 8.0%
Solubility in methanol [4]: soluble
Solubility in n-butyl acetate [4]: insoluble
Stability on standing in air (NMR) [6]: no peaks of non-coordinated ligands

Other lines, results leading:

Vaporization temp. ([1]; Table 1): 285 °C
Residue amount ([2]; Table 1): 3.6%
Substance: Titanium bis[2,6-dimethyl-5-(1-methylethoxy)imino-3-heptanoate] [Ti(26dm1meih)2]

Vaporization temp. ([1]; Table 1): 283 °C
Residue amount ([2]; Table 1): 8.3%
Substance: Titanium bis[2,6-dimethyl-5-(2-methylethoxy)imino-3-heptanoate] [Ti(26dm2meih)2]

Vaporization temp. ([1]; Table 1): 303 °C
Residue amount ([2]; Table 1): 7.6%
Substance: Titanium bis[4-(1-ethylethoxy)imino-2-pentanoate] [Ti(1eeip)2]

Vaporization temp. ([1]; Table 1): 295 °C
Residue amount ([2]; Table 1): 3.3%
Substance: Titanium bis[4-(1-methylethoxy)imino-2-pentanoate] [Ti(1meip)2]

Residue amount ([2]; Table 1): 26.6%
Substance: Titanium bis[4-(n-propoxy)imino-2-pentanoate] [Ti(pip)2]
